Where two headings read alike, the source gives them in different places. Marks after values point to notes of the source that are not given here.
Legend:
[1] = system: HEp2 cells; experiment: Phototoxicity (1.5 J/cm^2), Cell Titer Blue; format: cell-based; conditions: Homo sapiens, HEp-2, light or radiation study, light dose 1.5 J/cm^2
Protocol: (§1) Human carcinoma HEp2 cells were obtained from ATCC and maintained in a 75 cm^2 flask (Chemglass) with 1× MEM (Eagle’s minimal essential medium) containing 10% FBS (fetal bovine serum) and 1% antibiotic (penicillin–streptomycin) in a humidified, 5% CO2 incubator at 37 °C. Stock solutions with a concentration of 32 mM in DMSO were prepared for each BODIPY. The stock solution was diluted to the final working concentrations with culture medium. The HEp2 cells were plated at 7500–10,000 cells per well in a Costar 96-well plate and allowed to grow for 24 h. The BODIPY stock solution was diluted to a 200 μM working solution and two-fold serial dilutions were prepared with final concentrations of 200, 100, 50, 25, 12.5, 6.25, and 0 μM. Each BODIPY was incubated for 24 h at 37 °C under 5% CO2. For the dark cytotoxicity experiments, after incubation, excess BODIPY was removed by washing the cells three times with 1× PBS (phosphate-buffered saline) and replacing with media containing 20% Cell Titer Blue (Promega, Madison, WI, USA). The cells were then incubated for additional 24 h at 37 °C under 5% CO2 and the cell toxicity was determined by fluorescence intensity at ex 570/em 615 nm using a FluoStar Optima microplate reader (BMG Labtech, Cary, NC, USA).
For the phototoxicity experiments, after incubation the cells were exposed to a light dose of ~1.5 J/cm^2 generated using a 600 W Quartz Tungsten Halogen lamp (Newport Corporation, Irvine, CA, USA). The cells were exposed for 20 min while the 96-well plate rested on an EchoTherm chilling plate (Torrey Pines Scientific, Carlsbad, CA, USA) set to 5 °C. Following light exposure, the loading media was removed and media containing 20% Cell Titer Blue was added. After incubation for 24 h at 37 °C under 5% CO2, the cell viability was determined as described above.

[2] = system: HEp2 cells; experiment: Dark cytotoxicity, Cell Titer Blue; format: cell-based; conditions: Homo sapiens, HEp-2, 24 h incubation, read-out: Dark Toxicity (IC50)
Protocol: as §1

[3] = cited from earlier work
[4] = UV-vis absorption and emission spectroscopy, relative fluorescence quantum yields; format: physicochemical; conditions: for λabs / λem: room temperature; for Фf (relative fluorescence quantum yield): standard rhodamine-6G (Ф = 0.86) in methanol, λexc = 473 nm
Protocol: UV−vis absorption spectra were collected on a Varian Cary 50 Bio spectrophotometer. Emission spectra were obtained on a PerkinElmer LS55 spectrophotometer, at room temperature. Spectrophotometric grade solvents and quartz cuvettes (1 cm path length) were used. Relative fluorescence quantum yields (Φf) were calculated using rhodamine 6G (Φf = 0.86 in methanol) as reference for the neutral BODIPYs and Ru(bpy)Cl2.6H2O (Φf = 0.028 in water) as the standard for the cationic BODIPYs using the following equation: Φx = Φst × Gradx/Gradst × (ηx/ηst)^2, where the ΦX and ΦST are the quantum yields of the sample and standard, GradX and GradST are the gradients from the plot of integrated fluorescence intensity vs. absorbance, and η represents the refractive index of the solvent (x is for the sample and st for the standard).

[5] = Cyclic voltammetry; format: physicochemical
Source text: Cyclic voltammograms were collected on a Biologic SP-300 potentiostat using a three-electrode setup with a platinum working electrode (2 mm diameter, CH Instruments), platinum counter electrode (2 mm diameter, CH Instruments), and a silver wire pseudo reference-electrode stored in 0.25 M NBu4PF6 in anhydrous acetonitrile and separated from the electrochemical cell by a glass frit. The electrochemical cell was composed of a borosilicate glass scintillation vial with a custom-machined cap. Working electrodes were polished and then pre-treated by cycling between upper and lower boundaries of the electrochemical window for the experiment in a solution containing only the electrolyte. Measurements were taken in a solution of 0.25 M recrystallized NBu4PF6 in dried and degassed anhydrous acetonitrile. BODIPYs were added to 5 mL of electrolyte solution to give a concentration of 1 mM. Each solution also contained 1 mM ferrocene as an internal reference. Solutions were sparged with N2 before each measurement.

| Stokes Shift ([4]; CH3CN) [nm] | ε (molar extinction coefficient) ([4]; CH3CN) | λabs ([4]; CH3CN) [nm] | λem ([4]; CH3CN) [nm] | Stokes Shift ([4]; CH3OH) [nm] | labs ([4]; CH3OH) [nm] | lem ([4]; CH3OH) [nm] | ε (molar extinction coefficient) ([4]; CH3OH) | Фf (relative fluorescence quantum yield) ([4]; CH3OH) | SMILES | IC50 [1] [µM] | IC50 [2] [µM] | Stokes Shift ([3]; CH3CN) [nm] | Φf (fluorescence quantum yield) ([3]; CH3CN) | ε (molar extinction coefficient) ([3]; CH3CN) | λabs ([3]; CH3CN) [nm] | λem ([3]; CH3CN) [nm] | other results |
| --- | --- | --- | --- | --- | --- | --- | --- | --- | --- | --- | --- | --- | --- | --- | --- | --- | --- |
| – | – | – | – | – | – | – | – | – | CC1=CC(C)=[N+]2C1=C(c1ccncc1)c1c(C)cc(C)n1[B-]2(F)F [4Py] | > 100 | > 200 | 14 | 0.31 | 72,100 M^−1 cm ^−1 | 501 | 515 | – |
| 15 | 64,280 M^−1 cm ^−1 | 530 | 545 | 17 | 531 | 548 | 69940 M-1 cm -1 | 0.23 | CC1=C(Cl)C(C)=[N+]2C1=C(c1ccccn1)c1c(C)c(Cl)c(C)n1[B-]2(F)F [2PyCl2, 2,6-Dichloro-8-(2-pyridyl)-1,3,5,7-tetramethyl-BODIPY] | > 100 | > 200 | – | – | – | – | – | – |
| 12 | 87,500 M^−1 cm ^−1 | 502 | 514 | 10 | 504 | 514 | 119800 M-1 cm -1 | 0.13 | CC1=CC(C)=[N+]2C1=C(c1ccccn1)c1c(C)cc(C)n1[B-]2(F)F [2Py] | > 100 | > 200 | – | – | – | – | – | – |
| 15 | 57,540 M^−1 cm ^−1 | 527 | 542 | 16 | 530 | 546 | 66880 M-1 cm -1 | 0.57 | CC1=C(Cl)C(C)=[N+]2C1=C(c1cccnc1)c1c(C)c(Cl)c(C)n1[B-]2(F)F [3PyCl2, 2,6-Dichloro-8-(3-pyridyl)-1,3,5,7-tetramethyl-BODIPY] | > 100 | 200 | – | – | – | – | – | – |
| – | – | – | – | – | – | – | – | – | CC1=C(Cl)C(C)=[N+]2C1=C(c1ccncc1)c1c(C)c(Cl)c(C)n1[B-]2(F)F [4PyCl2] | – | – | 18 | 0.58 | 50,800 M^−1 cm ^−1 | 528 | 546 | – |
| – | – | – | – | – | – | – | – | – | CC1=C(Cl)C(C)=[N+]2C1=C(c1cc[n+](C)cc1)c1c(C)c(Cl)c(C)n1[B-]2(F)F [4catPyCl2] | – | – | 62 | 0.048 | 23,400 M^−1 cm ^−1 | 538 | 600 | fluorescence enhancement relative to the non-chlorinated pyridinium BODIPY ([4]; water): 10 fold; two-electron reduction shift positive compared with 4catPy [5]: 180 mV; anodic peak shift positive compared with the corresponding unchlorinated BODIPY ([5]; 100 mV/s): 180 mV; E1/2red, two-electron reduction to doubly reduced state ([5]; vs. Fc^+/Fc, 100 mV/s, acetonitrile, 0.25 M NBu4PF6): −0.89 ^e V; E1/2ox ([5]; vs. Fc^+/Fc, value at 1 V/s, acetonitrile, 0.25 M NBu4PF6): +1.03 ^d V; Stokes Shift ([3]; H2O): 65 nm; Φf (fluorescence quantum yield) ([3]; H2O): 0.038; ε (molar extinction coefficient) ([3]; H2O): 11,640 M^−1 cm ^−1; λabs ([3]; H2O): 540 nm; λem ([3]; H2O): 605 nm |
